# Measurements from US9676714B2, “Sulfonylindole derivatives and method for preparing the same” (Daewoong Pharmaceutical Co., Ltd., priority 2013, dated 2017).
# Structures can show the parent of a compound that is named as a salt.
# Key:
# [1] = system: basal gastric acid secretion; experiment: Inhibitory effect on the basal gastric acid secretion in pylorus-ligated rats (Shay's rat model); type: in vivo, Sprague Dawley (SD) rats; conditions: 5 h, male SD rats, 3 mg/kg/2 ml into the duodenum, five hours after the ligation, total gastric acid secretion vs control group
# Protocol: 3) Inhibitory Effect on the Basal Gastric Acid Secretion in Pylorus-Ligated Rats
# Assays for determining inhibitory effect of the compounds of the present invention on the basal gastric acid secretion was performed according to Shay's rat model (Shay, H., et al., 1945, gastroenterology, 5, p. 43-61). Male Sprague Dawley (SD) rats with a body weight in the range of 180˜220 g were divided into test (n=5) and control groups (n=5), and fasted for 18 hours with free access to water. Under isoflurane anesthesia, the abdomens of the rats were incised and then the pylorus was ligated. After the ligation, the control groups were administered with only 10% ethanol, 20% polyethylene glycol (PEG) 400, and 10% aqueous Cremophor solution through the duodenum, and the other groups were administered with test compounds suspended in 10% ethanol, 20% PEG 400, and 10% aqueous Cremophor solution at a concentration of 3 mg/kg/2 ml into the duodenum. Five hours after the ligation, the experimental animals were euthanized and their stomach contents were collected. The thus obtained contents were centrifuged at 4,000×g for 10 minutes, and the supernatant was recovered to obtain gastric juice therefrom. The amount of the gastric juice and its pH were measured. The acidity of the gastric juice was determined by 0.1 N-NaOH volume (ueq/mL) for automatic titration of gastric acid to pH 7.0. The total acid output was obtained by multiplying the gastric acidity by the amount of gastric juice. Inhibition Activity (%) of Test Compounds=(total gastric acid secretion in control group−total gastric acid secretion in groups treated with test compounds)/total gastric acid secretion in control group×100
# [2] = target: T1, proton pump (H+/K+-ATPase) (Sus scrofa, UniProt P19156); experiment: Measurement of inhibitory effects on proton pump (H+/K+-ATPase) activities; type: biochemical; conditions: hog gastric vesicles, K+-specific H+/K+-ATPase activity, Tris-HCl buffer pH 7.4, 37° C. for 40 minutes, malachite green Pi readout
# T1 construct: Gastric vesicles were prepared from hog stomach via centrifugal separation; from tissue; host or cells: hog stomach (gastric vesicles, method of Rabon et al. 1988)
# In short: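 Hog gastric vesicles in 60 mmol/l Tris-HCl pH 7.4 with 0.5% DMSO were treated with compounds at room temperature; reaction was started with 10 μl of 10 mmol/l ATP stock. Released Pi was read at 570 nm, K+-specific activity taken as the ±K+ difference. IC50 from 4-parameter logistic fit.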
# T1 sequence (P19156 whole entry): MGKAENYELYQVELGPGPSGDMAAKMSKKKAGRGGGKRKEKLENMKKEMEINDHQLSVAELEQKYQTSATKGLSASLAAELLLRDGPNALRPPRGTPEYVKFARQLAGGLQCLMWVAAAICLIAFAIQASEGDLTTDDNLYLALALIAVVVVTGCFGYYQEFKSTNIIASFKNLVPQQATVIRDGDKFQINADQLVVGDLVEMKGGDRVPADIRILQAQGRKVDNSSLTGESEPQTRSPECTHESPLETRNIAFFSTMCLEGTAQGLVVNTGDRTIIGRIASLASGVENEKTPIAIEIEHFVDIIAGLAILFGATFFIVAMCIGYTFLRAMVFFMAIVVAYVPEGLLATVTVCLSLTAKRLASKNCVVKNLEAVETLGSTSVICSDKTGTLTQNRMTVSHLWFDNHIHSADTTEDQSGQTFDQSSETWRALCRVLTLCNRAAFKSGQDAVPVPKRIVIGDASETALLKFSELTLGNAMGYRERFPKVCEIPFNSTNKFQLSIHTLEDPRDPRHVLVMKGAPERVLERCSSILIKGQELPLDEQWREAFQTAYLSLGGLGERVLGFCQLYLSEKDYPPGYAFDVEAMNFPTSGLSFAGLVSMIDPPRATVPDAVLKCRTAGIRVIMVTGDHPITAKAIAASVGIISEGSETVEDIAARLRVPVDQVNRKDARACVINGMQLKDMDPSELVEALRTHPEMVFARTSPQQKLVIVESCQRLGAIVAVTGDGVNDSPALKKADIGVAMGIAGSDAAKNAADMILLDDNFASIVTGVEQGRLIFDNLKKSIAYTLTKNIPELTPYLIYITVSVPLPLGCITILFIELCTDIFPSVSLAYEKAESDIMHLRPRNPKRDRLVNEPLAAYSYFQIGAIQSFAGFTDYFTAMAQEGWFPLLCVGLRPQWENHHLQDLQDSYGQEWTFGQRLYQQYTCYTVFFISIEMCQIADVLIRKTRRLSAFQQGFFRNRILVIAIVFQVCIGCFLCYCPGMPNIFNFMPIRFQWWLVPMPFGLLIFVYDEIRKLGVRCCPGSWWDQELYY
# T1 sequence (P18434 whole entry partner): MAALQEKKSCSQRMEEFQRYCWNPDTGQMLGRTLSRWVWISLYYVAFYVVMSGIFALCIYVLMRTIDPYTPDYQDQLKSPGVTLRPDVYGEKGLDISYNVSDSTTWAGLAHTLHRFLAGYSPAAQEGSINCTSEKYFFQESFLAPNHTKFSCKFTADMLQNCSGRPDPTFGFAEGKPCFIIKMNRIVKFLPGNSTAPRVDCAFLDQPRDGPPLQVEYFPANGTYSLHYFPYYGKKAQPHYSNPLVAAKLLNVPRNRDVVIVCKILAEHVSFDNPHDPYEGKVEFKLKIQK
smiles,measurement,setting,value
"CNCc1cn(S(=O)(=O)c2cncc(F)c2)c2cc(Nc3ccc(OC)cc3OC(F)(F)F)ccc12 [Example 214, 1-((5-fluoropyridin-3-yl)sulfonyl)-N-(4-methoxy-2-(trifluoromethoxy)phenyl)-3-((methylamino)methyl)-1H-indol-6-amine hydrochloride]",inhibition in vivo at 3 mg/kg,[1],75%
same,IC50,[2],1690 nM
"CNCc1cn(S(=O)(=O)c2cncc(F)c2)c2cc(Nc3ccc(C)cc3Cl)ccc12 [Example 211, N-(2-chloro-4-methylphenyl)-1-((5-fluoropyridin-3-yl)sulfonyl)-3-((methylamino)methyl)-1H-indol-6-amine hydrochloride]",inhibition in vivo at 3 mg/kg,[1],43%
same,IC50,[2],90 nM
"CNCc1cn(S(=O)(=O)c2cccnc2)c2cc(Nc3cc(F)c(C)cc3F)ccc12 [Example 72, N-(2,5-difluoro-4-methylphenyl)-3-((methylamino)methyl)-1-(pyridin-3-ylsulfonyl)-1H-indol-6-amine hydrochloride]",inhibition in vivo at 3 mg/kg,[1],49%
same,IC50,[2],610 nM
"CNCc1cn(S(=O)(=O)c2cccnc2)c2cc(Nc3ccc(Cl)cc3Cl)ccc12 [Example 29, N-(2,4-dichlorophenyl)-3-((methylamino)methyl)-1-(pyridin-3-ylsulfonyl)-1H-indol-6-amine hydrochloride]",inhibition in vivo at 3 mg/kg,[1],44%
same,IC50,[2],130 nM
"CNCc1cn(S(=O)(=O)c2cccc(C)c2)c2cc(Nc3ccc(C)cc3F)ccc12 [Example 226, N-(2-fluoro-4-methylphenyl)-3-((methylamino)methyl)-1-(m-tolylsulfonyl)-1H-indol-6-amine hydrochloride]",inhibition in vivo at 3 mg/kg,[1],44%
same,IC50,[2],1160 nM
"CNCc1cn(S(=O)(=O)c2cccc(F)c2)c2cc(Nc3ccc(C(F)(F)F)nc3Cl)ccc12 [Example 145, N-(2-chloro-6-(trifluoromethyl)pyridin-3-yl)-1-((3-fluorophenyl)sulfonyl)-3-((methylamino)methyl)-1H-indol-6-amine hydrochloride]",inhibition in vivo at 3 mg/kg,[1],45%
same,IC50,[2],170 nM
"CNCc1cn(S(=O)(=O)c2cccnc2)c2cc(Nc3ccc(C)cc3Cl)ccc12 [Example 22, N-(2-chloro-4-methylphenyl)-3-((methylamino)methyl)-1-(pyridin-3-ylsulfonyl)-1H-indol-6-amine]",inhibition in vivo at 3 mg/kg,[1],48%
same,IC50,[2],210 nM
"CNCc1cn(S(=O)(=O)c2cccc(F)c2)c2cc(Nc3ccc(Cl)nc3C(F)(F)F)ccc12 [Example 143, N-(6-chloro-2-(trifluoromethyl)pyridin-3-yl)-1-((3-fluorophenyl)sulfonyl)-3-((methylamino)methyl)-1H-indol-6-amine hydrochloride]",inhibition in vivo at 3 mg/kg,[1],53%
same,IC50,[2],290 nM
"CNCc1cn(S(=O)(=O)c2cncc(F)c2)c2cc(Nc3ccc(C(F)(F)F)nc3Cl)ccc12 [Example 218, N-(2-chloro-6-(trifluoromethyl)pyridin-3-yl)-1-((5-fluoropyridin-3-yl)sulfonyl)-3-((methylamino)methyl)-1H-indol-6-amine hydrochloride]",inhibition in vivo at 3 mg/kg,[1],49%
same,IC50,[2],2920 nM
"CNCc1cn(S(=O)(=O)c2cccnc2)c2cc(Nc3ccc(OC(F)(F)F)cc3OC)ccc12 [Example 56, N-(2-methoxy-4-(trifluoromethoxy)phenyl)-3-((methylamino)methyl)-1-(pyridin-3-ylsulfonyl)-1H-indol-6-amine hydrochloride]",inhibition in vivo at 3 mg/kg,[1],82%
same,IC50,[2],460 nM
"CNCc1cn(S(=O)(=O)c2cccnc2)c2cc(Nc3ccc(OC(F)(F)F)cc3C)ccc12 [Example 53, N-(2-methyl-4-(trifluoromethoxy)phenyl)-3-((methylamino)methyl)-1-(pyridin-3-ylsulfonyl)-1H-indol-6-amine hydrochloride]",inhibition in vivo at 3 mg/kg,[1],45%
same,IC50,[2],490 nM
"CNCc1cn(S(=O)(=O)c2cccnc2)c2cc(Nc3ccc(C(F)(F)F)cc3Cl)ccc12 [Example 34, N-(2-chloro-4-(trifluoromethyl)phenyl)-3-((methylamino)methyl)-1-(pyridin-3-ylsulfonyl)-1H-indol-6-amine hydrochloride]",inhibition in vivo at 3 mg/kg,[1],45%
same,IC50,[2],390 nM
"CNCc1cn(S(=O)(=O)c2cccc(F)c2)c2cc(Nc3ccc(Cl)nc3Cl)ccc12 [Example 142, N-(2,6-dichloropyridin-3-yl)-1-((3-fluorophenyl)sulfonyl)-3-((methylamino)methyl)-1H-indol-6-amine hydrochloride]",inhibition in vivo at 3 mg/kg,[1],42%
same,IC50,[2],120 nM
